# Experimental data published in ChEMBL document CHEMBL5634077, “Recent advances in 1,2,3- and 1,2,4-triazole hybrids as antimicrobials and their SAR: A critical review” (2023).
# Legend:
# Escherichia coli [1] = assay: Antibacterial activity against Escherichia coli assessed as reduction in bacterial growth by broth microdilution method; type: functional
# Candida albicans [2] = assay: Antimicrobial activity against Candida albicans assessed as diameter of inhibition zone incubated for 24 hrs by disc-diffusion method; type: functional
# Staphylococcus aureus [3] = assay: Antimicrobial activity against Staphylococcus aureus assessed as diameter of inhibition zone incubated for 24 hrs by disc-diffusion method; type: functional
# Escherichia coli [4] = assay: Antimicrobial activity against Escherichia coli assessed as diameter of inhibition zone incubated for 24 hrs by disc-diffusion method; type: functional
# Klebsiella pneumoniae [5] = assay: Antimicrobial activity against Klebsiella pneumoniae assessed as diameter of inhibition zone incubated for 24 hrs by disc-diffusion method; type: functional
# Aspergillus fumigatus = assay: […] activity against Aspergillus fumigatus NCIM 2081 assessed as reduction in […] by micro-broth dilution method; type: functional
# Escherichia coli [6] = assay: Antibacterial activity against Escherichia coli ATCC 8739 assessed as reduction in bacterial growth by micro-broth dilution method; type: functional
# Aspergillus niger [7] = assay: […] activity against Aspergillus niger NCIM 2191 assessed as reduction in […] by micro-broth dilution method; type: functional
# Staphylococcus aureus [8] = assay: Antibacterial activity against Staphylococcus aureus ATCC 29213 assessed as reduction in bacterial growth by micro-broth dilution method; type: functional
# Candida albicans [9] = assay: Antifungal activity against Candida albicans NCIM 2087 assessed as fungal growth inhibition; type: functional
# Pseudomonas aeruginosa [10] = assay: Antibacterial activity against Pseudomonas aeruginosa MCCB 0035 assessed as reduction in bacterial growth by micro-broth dilution method; type: functional
# Aspergillus flavus [11] = assay: Antifungal activity against Aspergillus flavus assessed as diameter of inhibition zone at 50 to 100 ug/ml by disc-diffusion method; type: functional; details: dose 50-100 µg/ml
# Candida albicans [12] = assay: Antifungal activity against Candida albicans assessed as diameter of inhibition zone at 50 to 100 ug/ml by disc-diffusion method; type: functional; details: dose 50-100 µg/ml
# Staphylococcus aureus [13] = assay: Antibacterial activity against Staphylococcus aureus assessed as reduction in bacterial growth incubated for 24 hrs by broth microdilution method; type: functional
# Escherichia coli [14] = assay: Antibacterial activity against Escherichia coli ATCC 25922 assessed as reduction in microbial growth; type: functional
# Staphylococcus aureus [15] = assay: Antibacterial activity against Staphylococcus aureus ATCC 6538p assessed as reduction in microbial growth; type: functional
# Proteus vulgaris [16] = assay: Antibacterial activity against Proteus vulgaris ATCC 3851 assessed as reduction in microbial growth; type: functional
# Salmonella typhimurium = assay: Antibacterial activity against Salmonella typhimurium SL1344 assessed as reduction in microbial growth; type: functional, Salmonella enterica subsp. enterica serovar Typhimurium; details: Salmonella enterica
# Bacillus subtilis [17] = assay: Antibacterial activity against Bacillus subtilis ATCC 6633 assessed as reduction in microbial growth; type: functional
# Micrococcus luteus [18] = assay: Antibacterial activity against Micrococcus luteus IFC 12708 assessed as reduction in microbial growth; type: functional
# Staphylococcus aureus [19] = assay: Antibacterial activity against Staphylococcus aureus NCIM 2079 assessed as reduction in bacterial growth incubated for 18 to 24 hrs by broth microdilution method; type: functional; details: time 18-24 hrs
# Escherichia coli [20] = assay: Antibacterial activity against Escherichia coli NCIM 2065 assessed as reduction in bacterial growth incubated for 18 to 24 hrs by broth microdilution method; type: functional; details: time 18-24 hrs
# Pseudomonas aeruginosa [21] = assay: Antibacterial activity against Pseudomonas aeruginosa NCIM 2036 assessed as reduction in bacterial growth incubated for 18 to 24 hrs by broth microdilution method; type: functional; details: time 18-24 hrs
# Bacillus cereus = assay: Antibacterial activity against Bacillus cereus NCIM 2156 assessed as reduction in bacterial growth incubated for 18 to 24 hrs by broth microdilution method; type: functional; details: time 18-24 hrs
# Proteus vulgaris [22] = assay: Antibacterial activity against Proteus vulgaris NCIM 2027 assessed as reduction in bacterial growth incubated for 18 to 24 hrs by broth microdilution method; type: functional; details: time 18-24 hrs
# Bacillus subtilis [23] = assay: Antibacterial activity against Bacillus subtilis NCIM 2063 assessed as reduction in bacterial growth incubated for 18 to 24 hrs by broth microdilution method; type: functional; details: time 18-24 hrs
# Proteus mirabilis = assay: Antibacterial activity against Proteus mirabilis NCIM 2241 assessed as reduction in bacterial growth incubated for 18 to 24 hrs by broth microdilution method; type: functional; details: time 18-24 hrs
# Staphylococcus aureus [24] = assay: Antibacterial activity against Staphylococcus aureus; type: functional
# Escherichia coli [25] = assay: Antibacterial activity against Escherichia coli assessed as reduction in bacterial growth; type: functional
# Aspergillus niger [26] = assay: Antifungal activity against Aspergillus niger assessed as fungal growth inhibition; type: functional
# Proteus vulgaris [27] = assay: Antibacterial activity against Proteus vulgaris assessed as reduction in bacterial growth; type: functional
# Micrococcus luteus [28] = assay: Antibacterial activity against Micrococcus luteus assessed as reduction in microbial growth; type: functional
# Bacillus subtilis [29] = assay: Antibacterial activity against Bacillus subtilis MTCC 441 assessed as reduction in bacterial growth; type: functional
# Bacillus subtilis [30] = assay: Antibacterial activity against Bacillus subtilis assessed as reduction in bacterial growth; type: functional
# Pseudomonas aeruginosa [31] = assay: Antibacterial activity against Pseudomonas aeruginosa MTCC 1034 assessed as reduction in bacterial growth; type: functional
# Candida albicans [32] = assay: Antifungal activity against Candida albicans assessed as inhibition of fungal growth; type: functional
# Rhizopus = assay: Antifungal activity against Rhizopus assessed as inhibition of fungal growth; type: functional
# Escherichia coli [33] = assay: Antibacterial activity against Escherichia coli assessed as inhibition of bacterial growth; type: functional
# Klebsiella pneumoniae [34] = assay: Antibacterial activity against Klebsiella pneumoniae assessed as inhibition of bacterial growth; type: functional
# Aspergillus flavus [35] = assay: Antifungal activity against Aspergillus flavus assessed as inhibition of fungal growth; type: functional
# Staphylococcus aureus [36] = assay: Antibacterial activity against Staphylococcus aureus assessed as inhibition of bacterial growth; type: functional
smiles,measurement,setting,value
Cc1ccc(NC(=O)Cn2cc(Cn3cc(CC(NC(=O)C(C)c4ccc(CC(C)C)cc4)C(=O)NC(Cc4ccccc4)C(N)=O)c4ccccc43)nn2)c(C)c1 (stereo not given),MIC,Escherichia coli [1],25 µg/mL
S=c1[nH]nc(-c2ccc(Cl)cc2Cl)n1/N=C/c1ccco1,diameter of the inhibition zone (DIZ),Candida albicans [2],3 mm
same,diameter of the inhibition zone (DIZ),Staphylococcus aureus [3],3 mm
same,diameter of the inhibition zone (DIZ),Escherichia coli [4],3 mm
same,diameter of the inhibition zone (DIZ),Klebsiella pneumoniae [5],3 mm
O=c1cc(-c2ccccc2)c2cc(Cl)ccc2n1Cc1nnc2n1N=C(c1ccccc1)CS2,MIC,Aspergillus fumigatus,8 µg/mL
same,MIC,Escherichia coli [6],2 µg/mL
same,MIC,Aspergillus niger [7],2 µg/mL
same,MIC,Staphylococcus aureus [8],2 µg/mL
same,MIC,Candida albicans [9],1 µg/mL
same,MIC,Pseudomonas aeruginosa [10],4 µg/mL
CC(=O)N1CCN(c2ccc(OCC3COC(Cn4ccnc4)(c4ccc(Cl)cc4Cl)O3)cc2)CC1 (stereo not given) [KETOCONAZOLE],diameter of the inhibition zone (DIZ),Aspergillus flavus [11],14 mm
same,diameter of the inhibition zone (DIZ),Candida albicans [12],14 mm
Cc1ccccc1-n1cc(Cn2c3ccccc3c(=O)c3ccccc32)nn1,MIC,Staphylococcus aureus [13],10.1 µg/mL
COc1ccc(N2C(=O)CSC2c2cn(-c3ccccc3)nc2-c2nnn(-c3ccccc3)c2C)cc1 (stereo not given),MIC,Escherichia coli [14],1.56 µg/mL
same,MIC,Staphylococcus aureus [15],1.56 µg/mL
same,MIC,Proteus vulgaris [16],1.56 µg/mL
same,MIC,Salmonella typhimurium,1.56 µg/mL
same,MIC,Bacillus subtilis [17],1.56 µg/mL
same,MIC,Micrococcus luteus [18],1.56 µg/mL
O=c1cc(-c2ccccc2)c2cc(F)ccc2n1Cc1nnc2n1N=C(c1ccccc1)CS2,MIC,Aspergillus fumigatus,4 µg/mL
same,MIC,Escherichia coli [6],8 µg/mL
same,MIC,Aspergillus niger [7],4 µg/mL
same,MIC,Staphylococcus aureus [8],2 µg/mL
same,MIC,Candida albicans [9],2 µg/mL
same,MIC,Pseudomonas aeruginosa [10],8 µg/mL
Cc1c(-c2nn(-c3ccccc3)cc2C2SCC(=O)N2c2cc(F)ccc2F)nnn1-c1ccccc1 (stereo not given),MIC,Escherichia coli [14],1.56 µg/mL
same,MIC,Staphylococcus aureus [15],1.56 µg/mL
same,MIC,Proteus vulgaris [16],1.56 µg/mL
same,MIC,Salmonella typhimurium,1.56 µg/mL
same,MIC,Bacillus subtilis [17],1.56 µg/mL
same,MIC,Micrococcus luteus [18],1.56 µg/mL
Nn1c(NCCCNc2ccnc3cc(Cl)ccc23)nn(CN2CCNCC2)c1=S,MIC,Staphylococcus aureus [19],3.12 µg/mL
same,MIC,Escherichia coli [20],6.25 µg/mL
same,MIC,Pseudomonas aeruginosa [21],25 µg/mL
same,MIC,Bacillus cereus,3.12 µg/mL
same,MIC,Proteus vulgaris [22],12.5 µg/mL
same,MIC,Bacillus subtilis [23],12.5 µg/mL
same,MIC,Proteus mirabilis,12.5 µg/mL
COc1ccc(NC(=O)NCc2cn(CC(=O)Nc3ccc(C(F)(F)F)cc3)nn2)cc1,MIC,Staphylococcus aureus [24],27 µM
Sc1nnc(-c2ccc(Cl)cc2)n1/N=C/c1ccco1,diameter of the inhibition zone (DIZ),Candida albicans [2],4 mm
same,diameter of the inhibition zone (DIZ),Staphylococcus aureus [3],4 mm
same,diameter of the inhibition zone (DIZ),Escherichia coli [4],4 mm
same,diameter of the inhibition zone (DIZ),Klebsiella pneumoniae [5],4 mm
Cc1ccc2c(c1)c(=O)c1ccccc1n2Cc1cn(-c2ccccc2C)nn1,MIC,Staphylococcus aureus [13],12.3 µg/mL
O=C(Cn1cc(COc2ccc(C(=O)/C=C/c3ccccc3)cc2)nn1)Nc1ccc([N+](=O)[O-])cc1,MIC,Escherichia coli [25],12 µM
same,MIC,Aspergillus niger [26],12 µM
CC1(C)S[C@@H]2[C@H](NC(=O)[C@H](N)c3ccccc3)C(=O)N2[C@H]1C(=O)O [AMPICILLIN],MIC,Escherichia coli [14],1.56 µg/mL
same,MIC,Proteus vulgaris [27],1.56 µg/mL
same,MIC,Staphylococcus aureus [15],1.56 µg/mL
same,MIC,Micrococcus luteus [28],1.56 µg/mL
same,MIC,Proteus vulgaris [16],1.56 µg/mL
same,MIC,Bacillus subtilis [29],0.5 µg/mL
same,MIC,Escherichia coli [6],1 µg/mL
same,MIC,Bacillus subtilis [30],1.56 µg/mL
same,MIC,Staphylococcus aureus [8],2 µg/mL
same,MIC,Pseudomonas aeruginosa [31],0.5 µg/mL
same,MIC,Salmonella typhimurium,1.56 µg/mL
same,MIC,Bacillus subtilis [17],1.56 µg/mL
same,MIC,Micrococcus luteus [18],1.56 µg/mL
same,MIC,Pseudomonas aeruginosa [10],4 µg/mL
COc1ccc(-c2cc(-c3nnn(-c4ccccc4)c3C)no2)cc1,MIC,Proteus vulgaris [27],1.56 µg/mL
same,MIC,Micrococcus luteus [28],1.56 µg/mL
same,MIC,Bacillus subtilis [30],1.56 µg/mL
COc1cc(N2CCC(c3n[nH]c(=S)n3-c3ccc(Cl)cc3)CC2)ccc1Cl,MIC,Candida albicans [32],4 µg/mL
same,MIC,Rhizopus,8 µg/mL
same,MIC,Escherichia coli [33],4 µg/mL
same,MIC,Klebsiella pneumoniae [34],8 µg/mL
same,MIC,Aspergillus flavus [35],8 µg/mL
same,MIC,Staphylococcus aureus [36],8 µg/mL
